Results taken from PubChem BioAssay AID248 (DTP/NCI, 2004).
Values joined by “and” are separate entries in the source; they are usually repeats but may differ in a detail not shown here. Equal values may be shown once. Toxic doses and inconclusive results are not listed. No stated cut-off is given here; in the data, active means T/C of 150% or more; inactive means T/C below 125%.

System: L1210 leukemia ip in BDF1 mice, survival T/C
Assay: NCI In Vivo Anticancer Drug Screen. Data for tumor model L1210 Leukemia (intraperitoneal) in B6D2F1 (BDF1) mice
Conditions: endpoint: mean survival time, higher = longer survival
How it was run: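 Tumor cells were implanted, animals were treated, and survival was followed. The result divides the treated measurement by the vehicle-control measurement.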

[1] = dose: 12.5 mg/kg/injection, schedule: Q01DX009 (ip), vehicle: Klucel (hydroxypropylcellulose) (HPC)
[2] = dose: 25.0 mg/kg/injection, schedule: Q01DX009 (ip), vehicle: Klucel (hydroxypropylcellulose) (HPC)
[3] = dose: 100.0 mg/kg/injection, schedule: Q01DX009 (ip), vehicle: Klucel (hydroxypropylcellulose) (HPC)
[4] = dose: 100.0 mg/kg/injection, schedule: Q04DX003 (ip), vehicle: Klucel (hydroxypropylcellulose) (HPC)
[5] = dose: 200.0 mg/kg/injection, schedule: Q01DX009 (ip), vehicle: Klucel (hydroxypropylcellulose) (HPC)
[6] = dose: 25.0 mg/kg/injection, schedule: Q04DX003 (ip), vehicle: Klucel (hydroxypropylcellulose) (HPC)
[7] = dose: 50.0 mg/kg/injection, schedule: Q04DX003 (ip), vehicle: Klucel (hydroxypropylcellulose) (HPC)

Measured: T/C

CNc1cc(C(C)C)ccc1C
inactive: [1] 102 % of control | [2] 96 % of control | dose: 50.0 mg/kg/injection, schedule: Q01DX009 (ip), vehicle: Klucel (hydroxypropylcellulose) (HPC) 113 % of control | dose: 100.0 mg/kg/injection, schedule: Q01DX009 (sc), vehicle: olive oil, sesame oil, peanut oil 114 % of control | dose: 100.0 mg/kg/injection, schedule: Q04DX003 (sc), vehicle: olive oil, sesame oil, peanut oil 108 % of control | dose: 200.0 mg/kg/injection, schedule: Q01DX009 (sc), vehicle: olive oil, sesame oil, peanut oil 105 % of control | dose: 200.0 mg/kg/injection, schedule: Q04DX003 (sc), vehicle: olive oil, sesame oil, peanut oil 105 % of control | dose: 400.0 mg/kg/injection, schedule: Q01DX009 (sc), vehicle: olive oil, sesame oil, peanut oil 110 % of control | dose: 400.0 mg/kg/injection, schedule: Q04DX003 (sc), vehicle: olive oil, sesame oil, peanut oil 103 % of control

O=C(NNC1CCN(Cc2ccccc2)CC1)c1ccccc1
inactive: dose: 10.0 mg/kg/injection, schedule: Q01DX009 (ip), vehicle: saline with Tween-80 95 % of control | dose: 10.0 mg/kg/injection, schedule: Q04DX003 (ip), vehicle: saline with Tween-80 100 % of control | dose: 20.0 mg/kg/injection, schedule: Q01DX009 (ip), vehicle: saline with Tween-80 103 % of control | dose: 20.0 mg/kg/injection, schedule: Q04DX003 (ip), vehicle: saline with Tween-80 102 % of control | dose: 40.0 mg/kg/injection, schedule: Q01DX009 (ip), vehicle: saline with Tween-80 93 % of control | dose: 40.0 mg/kg/injection, schedule: Q04DX003 (ip), vehicle: saline with Tween-80 106 % of control

[N-]=C=C(C(=O)c1ccccc1)[n+]1cc(Br)cc2ccccc21
inactive: dose: 100.0 mg/kg/injection, schedule: Q04DX002 (ip), vehicle: saline with Tween-80 94 % of control | dose: 200.0 mg/kg/injection, schedule: Q04DX002 (ip), vehicle: saline with Tween-80 94 % of control | dose: 400.0 mg/kg/injection, schedule: Q04DX002 (ip), vehicle: saline with Tween-80 94 % of control

Cc1ccc(NC(=S)N(CCC#N)Cc2ccccc2)cc1C
inactive: dose: 100.0 mg/kg/injection, schedule: Q01DX001 (ip), vehicle: carboxymethylcellulose (CMC) 94 % of control | dose: 100.0 mg/kg/injection, schedule: Q01DX009 (ip), vehicle: carboxymethylcellulose (CMC) 93 % of control and 107 % of control | dose: 100.0 mg/kg/injection, schedule: Q04DX002 (ip), vehicle: carboxymethylcellulose (CMC) 98 % of control | dose: 100.0 mg/kg/injection, schedule: Q04DX003 (ip), vehicle: carboxymethylcellulose (CMC) 90 % of control | dose: 200.0 mg/kg/injection, schedule: Q01DX001 (ip), vehicle: carboxymethylcellulose (CMC) 100 % of control | dose: 200.0 mg/kg/injection, schedule: Q01DX009 (ip), vehicle: carboxymethylcellulose (CMC) 89 % of control and 91 % of control | dose: 200.0 mg/kg/injection, schedule: Q04DX002 (ip), vehicle: carboxymethylcellulose (CMC) 101 % of control and 88 % of control | dose: 200.0 mg/kg/injection, schedule: Q04DX003 (ip), vehicle: carboxymethylcellulose (CMC) 95 % of control | dose: 400.0 mg/kg/injection, schedule: Q01DX001 (ip), vehicle: carboxymethylcellulose (CMC) 90 % of control | dose: 400.0 mg/kg/injection, schedule: Q01DX009 (ip), vehicle: carboxymethylcellulose (CMC) 86 % of control | dose: 400.0 mg/kg/injection, schedule: Q04DX002 (ip), vehicle: carboxymethylcellulose (CMC) 95 % of control and 88 % of control | dose: 400.0 mg/kg/injection, schedule: Q04DX003 (ip), vehicle: carboxymethylcellulose (CMC) 90 % of control

CCCCNC(C)C1(O)Cc2c(O)c3c(c(O)c2C(OC2CC(N)C(O)C(C)O2)C1)C(=O)c1c(OC)cccc1C3=O (stereo not drawn)
inactive: dose: 5.0 mg/kg/injection, schedule: Q01DX009 (ip), vehicle: water 100 % of control | dose: 10.0 mg/kg/injection, schedule: Q01DX009 (ip), vehicle: water 100 % of control | dose: 20.0 mg/kg/injection, schedule: Q01DX009 (ip), vehicle: water 92 % of control | dose: 80.0 mg/kg/injection, schedule: Q01DX009 (ip), vehicle: water 104 % of control

CN(C)CC1CCCCC1OC(=O)c1ccccc1 (stereo not drawn)
inactive: dose: 50.0 mg/kg/injection, schedule: Q01DX009 (ip), vehicle: saline with Tween-80 91 % of control | dose: 100.0 mg/kg/injection, schedule: Q01DX009 (ip), vehicle: saline with Tween-80 94 % of control

C[N+]1(Cc2ccccc2)CCC2(C(N)=O)CC1Cc1ccccc12 (stereo not drawn)
inactive: dose: 75.0 mg/kg/injection, schedule: Q01DX001 (ip), vehicle: other 105 % of control | dose: 150.0 mg/kg/injection, schedule: Q01DX001 (ip), vehicle: other 100 % of control | dose: 300.0 mg/kg/injection, schedule: Q01DX001 (ip), vehicle: other 93 % of control

CCOC(=O)NCCBr
inactive: [3] 102 % of control | [4] 101 % of control | [5] 102 % of control | dose: 200.0 mg/kg/injection, schedule: Q04DX003 (ip), vehicle: Klucel (hydroxypropylcellulose) (HPC) 106 % of control | dose: 400.0 mg/kg/injection, schedule: Q01DX009 (ip), vehicle: Klucel (hydroxypropylcellulose) (HPC) 100 % of control | dose: 400.0 mg/kg/injection, schedule: Q04DX003 (ip), vehicle: Klucel (hydroxypropylcellulose) (HPC) 94 % of control

CC1=CC(=O)N(CCl)C1=O
inactive: dose: 100.0 mg/kg/injection, schedule: Q04DX003 (ip), vehicle: saline with Tween-80 102 % of control | dose: 200.0 mg/kg/injection, schedule: Q04DX003 (ip), vehicle: saline with Tween-80 94 % of control

CCOC(=O)c1[nH]c(C)c(CC(C(=O)OCC)C(=O)OCC)c1C
inactive: [6] 97 % of control | [7] 93 % of control | dose: 100.0 mg/kg/injection, schedule: Q01DX001 (ip), vehicle: Klucel (hydroxypropylcellulose) (HPC) 101 % of control | [4] 95 % of control | dose: 200.0 mg/kg/injection, schedule: Q01DX001 (ip), vehicle: Klucel (hydroxypropylcellulose) (HPC) 95 % of control | dose: 400.0 mg/kg/injection, schedule: Q01DX001 (ip), vehicle: Klucel (hydroxypropylcellulose) (HPC) 98 % of control

ClC1=C(Cl)C2(Cl)C3(Cl)C(Cl)=C(Cl)C(Cl)(C34OCCO4)C2(Cl)C12OCCO2 (stereo not drawn)
inactive: dose: 50.0 mg/kg/injection, schedule: Q01DX001 (ip), vehicle: saline 107 % of control | dose: 100.0 mg/kg/injection, schedule: Q01DX001 (ip), vehicle: saline 105 % of control | dose: 100.0 mg/kg/injection, schedule: Q01DX009 (ip), vehicle: saline 90 % of control | dose: 100.0 mg/kg/injection, schedule: Q04DX003 (ip), vehicle: saline 98 % of control | dose: 200.0 mg/kg/injection, schedule: Q01DX001 (ip), vehicle: saline 94 % of control | dose: 200.0 mg/kg/injection, schedule: Q01DX009 (ip), vehicle: saline 93 % of control | dose: 200.0 mg/kg/injection, schedule: Q04DX003 (ip), vehicle: saline 97 % of control | dose: 400.0 mg/kg/injection, schedule: Q01DX001 (ip), vehicle: saline 100 % of control | dose: 400.0 mg/kg/injection, schedule: Q01DX009 (ip), vehicle: saline 92 % of control | dose: 400.0 mg/kg/injection, schedule: Q04DX003 (ip), vehicle: saline 103 % of control

Cn1cnc2cc(N=Cc3ccc(N(CCCl)CCCl)cc3F)ccc21
inactive: dose: 100.0 mg/kg/injection, schedule: Q04DX002 (ip), vehicle: Klucel (hydroxypropylcellulose) (HPC) 104 % of control | dose: 200.0 mg/kg/injection, schedule: Q04DX002 (ip), vehicle: Klucel (hydroxypropylcellulose) (HPC) 101 % of control | dose: 400.0 mg/kg/injection, schedule: Q04DX002 (ip), vehicle: Klucel (hydroxypropylcellulose) (HPC) 97 % of control

COc1ccc(C(=O)CBr)c(OC)c1C
inactive: [1] 94 % of control | dose: 12.5 mg/kg/injection, schedule: Q04DX003 (ip), vehicle: Klucel (hydroxypropylcellulose) (HPC) 100 % of control | [2] 91 % of control | [6] 105 % of control | [7] 96 % of control

Cc1c(Cl)cccc1NC(=O)c1c(Cl)c(Cl)c(Cl)c(Cl)c1C(=O)O
inactive: [3] 102 % of control | [5] 103 % of control
